Data taken from PMC5120204, “Identification of an orally active small-molecule PTHR1 agonist for the treatment of hypoparathyroidism” (Nature Communications, 2016).

How the values were obtained:
[1] = Pharmacokinetics in OVX rats; type: in vivo; conditions: female, Crl:CD(SD), rat, plasma
Protocol: OVX was carried out in 32-week-old female Crl:CD (SD) rats (Charles River Laboratories). Twelve weeks after surgery, lumbar vertebral BMD (L3–L5) was measured in vivo by dual-energy X-ray absorptiometry (DXA) using a DCS-600EX-IIIR bone densitometer (Hitachi Aloka Medical), and the rats were divided into five groups, each with a similar mean value of BMD and body weight. Sample sizes were determined based on previous experiments with hPTHs and a published study with ibandronate and eldecalcitriol in our laboratories[42] (n=7–10). Then, OVX rats were treated once daily intravenously (vehicle or PCO371 at 3 or 10 mg kg^−1) or orally (vehicle or PCO371 at 30 mg kg^−1) or subcutaneously [vehicle or hPTH(1–34) at 0.9 nmol kg^−1] for 12 weeks. Ten to twelve OVX rats were assigned to each dose group. Nine rats were assigned to the sham-operated control group and were treated with vehicle for PCO371. Ten per cent DMSO (Wako Pure Chemical Industries)/10% Kolliphor EL (Sigma-Aldrich) in 10% hydroxypropyl-β-cyclodextrin (HPCD; Nihon Shokuhin Kako)/0.752% glycine (Wako Pure Chemical Industries) buffer was used as vehicle for PCO371, and phosphate-citrate buffer (pH 6.0) was used as vehicle for hPTH(1–34). To label bone-forming surfaces, tetracycline ([…], Nippon Zenyaku Kogyo) was subcutaneously injected on Day 78 and calcein (8 mg kg^−1, Dōjindo Laboratories) was subcutaneously injected on day 83. Under isoflurane anaesthesia, jugular vein blood was collected immediately before and at 1, 2, 6, 10 and 24 h after administration on day 82 to measure plasma concentration of PCO371 or on day 84 to measure serum Ca levels (o-CPC method, Wako Pure Chemical Industries). Urine was collected for 24 h from metabolic cages on days 84–85 to measure urinary collagen type 1 cross-linked C-telopeptide (CTX) by using the RatLaps ELISA System (Immunodiagnostic Systems). Under isoflurane anaesthesia, blood was collected on day 85 from the abdominal aorta to measure serum osteocalcin level by using the Rat Osteocalcin ELISA System (GE Healthcare). The lumbar spine and bilateral femurs were excised after 12 weeks of treatment. The first lumbar vertebra (L1), 3rd to 5th lumbar vertebrae (L3–L5), the right femur, and the right tibia were preserved in 70% ethanol to measure bone histomorphometry and BMD (DCS-600EX; Hitachi Aloka Medical). Measurement of bone histomorphometry was performed by the Ito Bone Histomorphometry Institute (Niigata, Japan). The second lumbar vertebra (L2) was wrapped in saline-soaked gauze and stored at −80 °C until measurement. Ultimate compressive strength (N) of the L2 vertebra was measured by using a mechanical testing machine (TK-252C; Muromachi Kikai).

TPTX rats = experiment: Single administration study in TPTX rats; type: in vivo, rat; conditions: TPTX rats, single oral administration
Protocol: TPTX was carried out in 6-week-old female Crl:CD(SD) rats (Charles River Laboratories). Rats with serum Ca levels of <8.0 mg dl^−1 at 5 days after surgery were used for the experiment. The rats were divided into six groups, each with a similar mean value of serum Ca levels and body weight. TPTX rats were treated once orally (vehicle or PCO371 at 1.3, 6.5 or 33 mg kg^−1) or subcutaneously (vehicle or hPTH(1–84) (Chugai Pharmaceutical) at 9 nmol kg^−1). Six TPTX rats were assigned to each dose group. The sample size was determined based on previous experiments and a published study with hPTHs and LA-PTH in our laboratories[24] (n=5–6). Vehicle for PCO371 was the same as in the OVX rat study, and phosphate-citrate buffer (pH 6.0) was used as vehicle for hPTH(1–84). Under isoflurane anaesthesia, jugular vein blood was collected immediately before and at 1, 2, 6, 10 and 24 h after administrations to measure serum Ca (o-CPC method, Wako Pure Chemical Industries) and Pi levels (xanthine oxidase method, Wako Pure Chemical Industries).
In another experiment, the effects of a single treatment with PCO371 or hPTH(1–34) on serum Ca and Pi in TPTX rats (6-week-old) were evaluated at the dose of 3, 9.5 or 30 mg kg^−1 (PCO371, p.o.) or 9 nmol kg^−1 (hPTH(1–34), s.c.) according to the same method as that described above.

Compound: Cc1cc(N2C(=O)NC(=O)C2(C)C)cc(C)c1CCS(=O)(=O)N1CCC2(CC1)N=C(c1ccc(OC(F)(F)F)cc1)NC2=O [PCO371, 1-{3,5-dimethyl-4-[2-({4-oxo-2-[4-(trifluoromethoxy)phenyl]-1,3,8-triazaspiro[4.5]dec-1-en-8-yl}sulfonyl)ethyl]phenyl}-5,5-dimethylimidazolidine-2,4-dione]
- AUC ([1]; iv, i.v. 3 mg kg-1): 15500 ng·h/mL
- half-life ([1]; iv, i.v. 3 mg kg-1): 2.4 ± 0.2 h
- AUC ([1]; iv, i.v. 10 mg kg-1): 48700 ng·h/mL
- half-life ([1]; iv, i.v. 10 mg kg-1): 2.2 ± 0.2 h
- AUC ([1]; po, p.o. 30 mg kg-1): 29500 ng·h/mL
- Cmax ([1]; po, p.o. 30 mg kg-1): 95.6 ± 84.4 ng/mL
- Tmax ([1]; po, p.o. 30 mg kg-1): 1.4 ± 0.8 h
- half-life ([1]; po, p.o. 30 mg kg-1): 2.5 ± 0.3 h
- serum Ca (TPTX rats): dose-dependently increased
- serum Pi (TPTX rats): decreased
